From ChEMBL document CHEMBL2401622, “Synthesis and in vitro evaluation of [18F]BMS-754807: a potential PET ligand for IGF-1R” (Bioorg Med Chem Lett, 2013)

Columns and labels:
Details in all cases: 0.0001 µM
[1] = Drug uptake in human grade 4 glioblastoma at 0.1 nM after 1 hr by phosphor imager autoradiography; type: ADME
[2] = Drug uptake in human breast tumor at 0.1 nM after 1 hr by phosphor imager autoradiography; type: ADME, tissue-based
[3] = Drug uptake in human pancreatic tumor at 0.1 nM after 1 hr by phosphor imager autoradiography; type: ADME

Measured: Drug uptake

C[C@@]1(C(=O)Nc2ccc([18F])nc2)CCCN1c1nc(Nc2cc(C3CC3)[nH]n2)c2cccn2n1
Active: all assays above
